Experimental data reported in patent US9663551B2, “Solanidine-derived compounds” (priority 2013, dated 2017).
Several values for one entry are separate records, joined by “and”; a condition that tells them apart may be missing. Equal entries are not always repeated.

Experiments:
Format in all cases: in vivo
[1] = tested on: Macrosiphum euphorbiae larvae; assay: Effects on larval survival (artificial medium feeding); settings: for Percentage of larval survival: after 16 days of treatment; for aphicide activity on larvae compared with 0.2 mM solanidine: 0.002 mM; for aphicide properties with respect to larvae compared with solanidine: 0.02 mM
Experimental: (§1) The Macrosiphum euphorbiae population was initiated from an apterous female provided by the Laboratory of Functional Biology, Insects and Interactions of the INRA/INSA of Villeurbanne in 2004. She was captured in 1995 on an eggplant in the Rhone-Alps region. The Macrosiphum euphorbiae aphids were raised on Desiree variety potato plants indoors at 20±1° C., 60±5% relative humidity and under a photoperiod of 16 hours of light and 8 hours of darkness.
For the tests on Macrosiphum euphorbiae larvae, adults were isolated and placed in PVC cages on artificial medium for one day in order to synchronize their lineage. Neonates (40 per experiment), less than 24 hours old, are placed in PVC cages containing artificial medium alone (control experiment) or artificial medium supplemented with 0.002, 0.02 or 0.2 mM active compound.
(§2) The individuals were monitored every two days over a period of 16 days. With each recording, the artificial medium is changed. Each cage houses five aphids.
(§3) A standard diet was used as the basis for carrying out the physiological monitoring. Its composition was described by Febvay et al. (J. Zool. 1988, 66(11), 2449-2453) and then modified according to the conditions of Down et al. (J. Insect Physiol. 1996, 42(11-12), 1035-1045) as shown in Table 2. The medium is supplemented with active compound and placed between two layers of Parafilm® in sterile conditions.
(§4) The statistical analyses were performed using the Statistica 10 software (StatSoft®). To compare aphid survival in comparison with the control, Pearson's X^2 test (α<0.05) was applied. To compare the compounds in terms of concentration and nature, Fisher's least significant difference (LSD) test was applied (α<0.05). Daily fecundity was also studied using Fisher's LSD test (α<0.05).
The biological tests were carried out on Macrosiphum euphorbiae neonates less than 24 hours old. They are placed on artificial medium containing chaconine, solanine, solanidine, 100, 101 or 102.

[2] = tested on: Macrosiphum euphorbiae adults; assay: Effects on adult survival (artificial medium feeding); settings: for Percentage of adult survival: after 16 days of treatment
Experimental: as §1
(§5) For the tests on Macrosiphum euphorbiae adults, neonates (50 per experiment) resulting from synchronization are raised in petri dishes on leaves of Desiree variety potato plants for 10 days. Once the adult stage is reached, they are placed in PVC cages containing artificial medium alone (control experiment) or artificial medium supplemented with 0.002, 0.02 or 0.2 mM active compound.
as §2, §3, §4
The biological tests of compounds 100, 101 and 102 on Macrosiphum euphorbiae adults are presented in FIG. 2, and are compared to a control experiment.

[3] = tested on: Macrosiphum euphorbiae reproduction; assay: Effects on reproduction (daily fecundity per aphid)
Experimental: as §5, §2, §4
Data regarding the number of larvae resulting from parthenogenesis can be used to calculate daily fecundity per aphid. The results are presented in FIG. 3, wherein the number 10 represents the control, the reference numbers 12, 14 and 16 represent the results of compound 100 at the concentrations of 0.002, 0.02 and 0.2 mM, respectively, the reference numbers 18, 20 and 22 represent the results of compound 101 at the concentrations of 0.002, 0.02 and 0.2 mM, respectively, the reference numbers 24, 26, and 28 represent the results of compound 102 at the concentrations of 0.002, 0.02 and 0.2 mM, respectively.

| SMILES | Percentage of larval survival ([1]; 0.002 mM in artificial medium) [a %] | Percentage of larval survival ([1]; 0.02 mM in artificial medium) | Percentage of larval survival ([1]; 0.2 mM in artificial medium) | activity on adult survival in comparison with the control ([2]; 0.002 mM) | Percentage of adult survival ([2]; 0.002 mM in artificial medium) [a %] | activity on adult survival in comparison with the control ([2]; 0.02 mM) | Percentage of adult survival ([2]; 0.02 mM in artificial medium) [b %] | activity on adult survival in comparison with the control ([2]; 0.2 mM) | Percentage of adult survival ([2]; 0.2 mM in artificial medium) | mortality at 200 µM ([2]; Macrosiphum euphorbiae, 0.2 mM, read-out: mortality rate of adults) [%] | effect on reproduction in comparison with the control ([3]; 0.02 mM) | effect on reproduction in comparison with the control ([3]; 0.2 mM) | aphicide activity on larvae compared with 0.2 mM solanidine [1] | aphicide properties with respect to larvae compared with solanidine [1] |
| --- | --- | --- | --- | --- | --- | --- | --- | --- | --- | --- | --- | --- | --- | --- |
| C[C@H]1CC[C@@H]2[C@@H](C)[C@H]3[C@H](C[C@H]4[C@@H]5CC=C6C[C@@H](O[C@@H]7O[C@H](CO)[C@H](O[C@@H]8O[C@@H](C)[C@H](O)[C@@H](O)[C@H]8O)[C@H](O)[C@@H]7O[C@@H]7O[C@@H](C)[C@@H](O)[C@@H](O)[C@H]7O)CC[C@]6(C)[C@H]5CC[C@]34C)N2C1 [Chaconine, chaconine, reference compound] | 72 | 70a % | 52b % | – | – | – | – | – | – | – | – | – | – | – |
| C[C@H]1CCC2[C@@H](C)C3C(CC4C5CC=C6C[C@@H](OCCCn7cc(CO[C@@H]8OC(CO)[C@@H](O)C(O)C8O)nn7)CC[C@]6(C)C5CC[C@@]43C)N2C1 (stereo partly drawn) [Compound 100, 3-O-{3-[4-(β-D-glucopyranosyloxymethyl)-1,2,3-triazol-1-yl]propyl}solanidine] | 76 | 26% and 26b % | 22% and 22c % | no significant activity | 97 | no significant activity | 81 | notable effect | 46c % | 54 | significantly reduce reproduction | significantly reduce reproduction | lower activity than 0.2 mM solanidine | stronger than with solanidine |
| C[C@H]1CCC2[C@@H](C)C3C(CC4C5CC=C6C[C@@H](OCCCn7cc(CO[C@@H]8OC(CO)[C@H](O)C(O)C8O)nn7)CC[C@]6(C)C5CC[C@@]43C)N2C1 (stereo partly drawn) [Compound 101, 3-O-{3-[4-(β-D-galactopyranosyloxymethyl)-1,2,3-triazol-1-yl]propyl}solanidine] | 62 | 33% and 33b % | 24% and 24c % | – | 90 | drop in the survival rate | 73 | drop in the survival rate | 54c % | – | significantly reduce reproduction | significantly reduce reproduction | lower activity than 0.2 mM solanidine | stronger than with solanidine |
| CC1O[C@@H](OCc2cn(CCCO[C@H]3CC[C@@]4(C)C(=CCC5C6CC7C([C@H](C)C8CC[C@H](C)CN78)[C@@]6(C)CCC54)C3)nn2)C(O)C(O)[C@H]1O (stereo partly drawn) [Compound 102, 3-O-{3-[4-(α-L-rhamnopyranosyloxymethyl)-1,2,3-triazol-1-yl]propyl}solanidine] | 84 | 32% and 32b % | 6% and 6d % | no significant aphicide activity | 95 | marked effect on the survival of adults | 67 | marked effect on the survival of adults | 7d % | – | significantly reduce reproduction | significantly reduce reproduction | lower activity than 0.2 mM solanidine | stronger than with solanidine |
| C[C@H]1CC[C@@H]2[C@@H](C)[C@H]3[C@H](C[C@H]4[C@@H]5CC=C6C[C@@H](O)CC[C@]6(C)[C@H]5CC[C@]34C)N2C1 [Solanidine, solanidine] | 74 | 60d % | 52b % | – | – | – | – | – | – | – | – | – | – | – |
| C[C@H]1CC[C@@H]2[C@@H](C)[C@H]3[C@H](C[C@H]4[C@@H]5CC=C6C[C@@H](O[C@@H]7O[C@H](CO)[C@H](O)[C@H](O[C@@H]8O[C@H](CO)[C@@H](O)[C@H](O)[C@H]8O)[C@H]7O[C@H]7O[C@@H](C)[C@H](O)[C@@H](O)[C@H]7O)CC[C@]6(C)[C@H]5CC[C@]34C)N2C1 [Solanine, solanine, reference compound] | 82 | 80a % | 64c % | – | – | – | – | – | – | – | – | – | – | – |
